From the supplement of paper PMC10307832

Key:
Experiment in all cases: relative viability (nuclei count vs DMSO), 5 days (fraction); higher = more cells survive
VE-821 + Navitoclax = compound: CS(=O)(=O)c1ccc(-c2cnc(N)c(C(=O)Nc3ccccc3)n2)cc1 [VE-821] + CC1(C)CCC(c2ccc(Cl)cc2)=C(CN2CCN(c3ccc(C(=O)NS(=O)(=O)c4ccc(N[C@H](CCN5CCOCC5)CSc5ccccc5)c(S(=O)(=O)C(F)(F)F)c4)cc3)CC2)C1 [Navitoclax] (partner 0.5 µM)
Outline: (§1)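 Lung cancer cell lines in 1536-well plates got either a single drug or a fixed anchor-drug dose together with five library-drug doses (not always all listed) in √10 steps, by pin tool, on the day after seeding. Nuclei were counted after 5 days, and relative viability is the treated-to-vehicle ratio of nuclei counts. Values are medians of duplicate plates.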

VE-821 + Phenformin = compound: CS(=O)(=O)c1ccc(-c2cnc(N)c(C(=O)Nc3ccccc3)n2)cc1 [VE-821] + N=C(N)NC(=N)NCCc1ccccc1 [Phenformin] (partner 250 µM)
Outline: as §1

Vismodegib + Trametinib = compound: CS(=O)(=O)c1ccc(C(=O)Nc2ccc(Cl)c(-c3ccccn3)c2)c(Cl)c1 [Vismodegib] + CC(=O)Nc1cccc(-n2c(=O)n(C3CC3)c(=O)c3c(Nc4ccc(I)cc4F)n(C)c(=O)c(C)c32)c1 [Trametinib] (partner 0.02 µM)
Outline: as §1

Vismodegib + Luminespib = compound: CS(=O)(=O)c1ccc(C(=O)Nc2ccc(Cl)c(-c3ccccn3)c2)c(Cl)c1 [Vismodegib] + CCNC(=O)c1noc(-c2cc(C(C)C)c(O)cc2O)c1-c1ccc(CN2CCOCC2)cc1 [Luminespib] (partner 0.01 µM)
Outline: as §1

Row | Cell Line | relative viability (VE-821 + Navitoclax; first compound 0.08 µM) | relative viability (VE-821 + Navitoclax; first compound 0.253 µM) | relative viability (VE-821 + Navitoclax; first compound 0.8 µM) | relative viability (VE-821 + Navitoclax; first compound 2.53 µM) | relative viability (VE-821 + Navitoclax; first compound 8 µM) | relative viability (VE-821 + Phenformin; first compound 0.08 µM) | relative viability (VE-821 + Phenformin; first compound 0.253 µM) | relative viability (VE-821 + Phenformin; first compound 0.8 µM) | relative viability (VE-821 + Phenformin; first compound 2.53 µM) | relative viability (VE-821 + Phenformin; first compound 8 µM) | relative viability (Vismodegib + Trametinib; first compound 0.08 µM) | relative viability (Vismodegib + Trametinib; first compound 0.253 µM) | relative viability (Vismodegib + Trametinib; first compound 0.8 µM) | relative viability (Vismodegib + Trametinib; first compound 2.53 µM) | relative viability (Vismodegib + Trametinib; first compound 8 µM) | relative viability (Vismodegib + Luminespib; first compound 0.08 µM) | relative viability (Vismodegib + Luminespib; first compound 0.253 µM) | relative viability (Vismodegib + Luminespib; first compound 0.8 µM) | relative viability (Vismodegib + Luminespib; first compound 2.53 µM) | relative viability (Vismodegib + Luminespib; first compound 8 µM)
1 | SK-MES-1 | 1.3 | 1.23 | 1.24 | 1.21 | 1.26 | 0.708 | 0.626 | 0.718 | 0.628 | 0.445 | 0.574 | 0.504 | 0.553 | 0.558 | 0.545 | 0.775 | 0.765 | 0.849 | 0.853 | 0.922
2 | HCC-827 | 1.05 | 1.02 | 1.07 | 1.02 | 1.01 | 0.425 | 0.398 | 0.391 | 0.458 | 0.335 | 0.519 | 0.491 | 0.528 | 0.522 | 0.509 | 0.658 | 0.762 | 0.691 | 0.589 | 0.733
3 | NCI-H596 | 0.72 | 1.05 | 0.987 | 0.894 | 0.644 | 0.78 | 0.635 | 0.735 | 0.871 | 0.631 | 0.746 | 0.82 | 0.744 | 0.779 | 0.896 | 1.04 | 0.96 | 1.15 | 1.05 | 1.02
4 | COR-L23 | 1.05 | 1.01 | 1.23 | 1.15 | 0.894 | 0.444 | 0.438 | 0.472 | 0.502 | 0.427 | 0.525 | 0.532 | 0.658 | 0.58 | 0.67 | 0.672 | 0.779 | 0.586 | 0.675 | 0.75
5 | 201T | 1.23 | 1.2 | 1.21 | 1.32 | 1.12 | 0.476 | 0.415 | 0.468 | 0.431 | 0.364 | 0.724 | 0.721 | 0.737 | 0.698 | 0.657 | 1.02 | 1 | 1.07 | 1.11 | 0.968
6 | NCI-H322M | 1.24 |  | 1.39 | 1.38 | 1.08 | 0.504 | 0.766 | 0.741 | 0.577 | 0.364 | 0.52 | 0.507 | 0.522 | 0.518 | 0.525 | 0.876 | 0.797 | 0.881 | 0.812 | 0.818
7 | LU99A | 0.892 | 0.858 | 0.781 | 0.759 | 0.336 | 0.947 | 0.896 | 0.807 | 0.873 | 0.478 | 0.586 | 0.524 | 0.536 | 0.531 | 0.539 | 0.257 | 0.233 | 0.323 | 0.257 | 0.305
8 | NCI-H2405 | 0.873 | 0.888 | 0.762 | 0.942 | 0.751 | 0.37 | 0.373 | 0.36 | 0.453 | 0.432 | 0.671 | 0.616 | 0.592 | 0.598 | 0.638 | 0.735 | 0.691 | 0.706 | 0.686 | 0.686
9 | LK-2 | 0.996 | 0.965 | 0.767 | 1.06 | 0.97 | 0.639 | 0.366 | 0.459 | 0.925 | 0.374 | 0.645 | 0.726 | 0.628 | 0.831 | 0.615 | 0.175 | 0.185 | 0.207 | 0.151 | 0.214
10 | HCC-366 | 1.34 | 1.02 | 0.925 | 1.02 | 0.0801 | 0.709 | 0.57 | 0.555 | 0.502 | 0.12 | 0.348 | 0.292 | 0.334 | 0.37 | 0.343 |  |  |  |  | 
11 | NCI-H441 | 0.858 | 0.673 | 0.38 | 0.768 | 0.563 | 1.02 | 0.988 | 1.02 | 1.02 | 0.842 | 0.512 |  | 0.409 | 0.469 | 0.489 | 0.348 | 0.281 | 0.284 | 0.304 | 0.38
12 | COR-L 105 | 0.797 | 0.683 | 0.651 | 0.606 | 0.725 | 0.519 | 0.325 | 0.472 | 0.387 | 0.343 | 0.451 | 0.517 | 0.435 | 0.385 | 0.475 | 0.657 | 0.785 | 0.92 | 0.973 | 0.773
13 | A-427 | 0.928 | 0.945 | 1.04 | 0.981 | 0.625 | 0.341 | 0.319 | 0.293 | 0.365 | 0.225 | 0.812 | 0.82 | 0.654 | 0.777 | 0.913 | 0.912 | 0.831 | 0.856 | 0.876 | 0.824
14 | HCC-44 | 1.01 | 0.992 | 0.975 | 1.19 | 1.08 | 0.261 | 0.15 | 0.263 | 0.198 | 0.266 | 1.11 | 1.05 | 1.05 | 1.04 | 0.976 | 1 | 0.966 | 1 | 0.979 | 1.05
15 | NCI-H2170 | 0.598 | 0.561 | 0.512 | 0.554 | 0.323 | 0.416 | 0.399 | 0.358 | 0.412 | 0.359 | 0.89 | 0.897 | 1 | 0.857 | 0.987 | 0.677 | 0.513 | 0.762 | 0.645 | 0.7
16 | NCI-H1623 |  |  |  |  |  | 0.564 | 0.557 | 0.449 | 0.575 | 0.497 |  |  |  |  |  | 0.483 | 0.439 | 0.611 | 0.457 | 0.6
17 | NCI-H2228 | 0.943 | 1.01 | 0.811 | 0.842 | 0.741 | 0.356 | 0.294 | 0.284 | 0.457 | 0.194 | 0.368 | 0.42 | 0.484 | 0.417 | 0.585 | 0.225 | 0.183 | 0.182 | 0.127 | 0.18
